Counter-ions that a name gives are not always drawn. Like-named read-outs stand apart in the source and are kept apart here.
Assays:
Cucumis dipsaceus = test: Table 1: weed control by A1*), safener C3-1) and combination; type: in vivo
Procedure: (§1) The examples mentioned below were carried out in the greenhouse, and in some instances, in field trials.

Leptochloa filiformis = test: Table 2a field trial, treatment at the 2-3 leaf stage weed grasses: weed control; type: in vivo; details: 28 days after application
Procedure: as §1

Echinochloa crusgalli [1] = test: Table 5 field trial, treatment at the 2-4 leaf stage rice: weed control; type: in vivo; details: evaluation after 28 days
Procedure: as §1

Oryza sativa [2] = test: Table 5 field trial, treatment at the 2-4 leaf stage rice: rice damage; type: in vivo; details: evaluation after 28 days
Procedure: as §1

Oryza sativa [3] = test: Table 6 field trial, treatment at the 1-2 leaf stage: rice damage; type: in vivo; details: 2 g of ai/ha; field trial, 28 days after application
Procedure: as §1

Oryza sativa [4] = details: in vivo
Procedure: Seeds or rhizome pieces of mono- and dicotyledonous weed plants are placed into sandy loam soil in plastic pots, covered with soil and grown in a greenhouse under good growth conditions (temperature, atmospheric humidity, water supply). Weeds which are encountered in the cultivation of rice are cultivated in pots in which the water level is up to 2 cm over the soil surface. Three weeks after sowing, the test plants are treated at the three-leaf stage. The active compound combinations according to the invention, formulated as wettable powders or emulsion concentrates, and, in parallel experiments, the correspondingly formulated individual active compounds are sprayed onto the green parts of the plants at different dosages using an amount of water of 300 to 600 l/ha (converted), and, after about 3 to 4 weeks of the test plants in the greenhouse under optimum growth conditions (temperature, atmospheric humidity, water supply), the effect of the preparations is evaluated visually in comparison to untreated controls. In the case of rice or weeds which are encountered in the cultivation of rice, the active compounds are also added directly to the water for irrigation (application analogous to the so-called granules application) or sprayed onto plants and added to the water for irrigation. The experiments were designed with several, up to five, repetitions. […]

Oryza sativa [5] = test: Table 16 greenhouse trial, treatment at the 2-3 leaf stage: rice damage; type: in vivo; details: 20 days after application
Procedure: Seeds or rhizome pieces of mono- and dicotyledonous weed plants are placed into sandy loam soil in plastic pots, covered with soil and grown in a greenhouse under good growth conditions (temperature, atmospheric humidity, water supply). Weeds which are encountered in the cultivation of rice are cultivated in pots in which the water level is up to 2 cm over the soil surface. Three weeks after sowing, the test plants are treated at the three-leaf stage. The active compound combinations according to the invention, formulated as wettable powders or emulsion concentrates, and, in parallel experiments, the correspondingly formulated individual active compounds are sprayed onto the green parts of the plants at different dosages using an amount of water of 300 to 600 l/ha (converted), and, after about 3 to 4 weeks of the test plants in the greenhouse under optimum growth conditions (temperature, atmospheric humidity, water supply), the effect of the preparations is evaluated visually in comparison to untreated controls. In the case of rice or weeds which are encountered in the cultivation of rice, the active compounds are also added directly to the water for irrigation (application analogous to the so-called granules application) or sprayed onto plants and added to the water for irrigation. The experiments were designed with several, up to five, repetitions. The herbicidal compositions according to the invention also have good herbicidal post-emergence activity against a broad spectrum of economically important weed grasses and broad-leaved weeds.
Greenhouse trail: Treatment at the 2-3 leaf stage, evaluation 20 days after the application.

Echinochloa crusgalli [6] = test: Table 17 field trial, treatment at the 2 leaf stage: weed control; type: in vivo; details: 14 days after application
Description: Field trial: Treatment at the 2 leaf stage, evaluation 14 days after the application.

Oryza sativa [7] = test: Table 22 field trial, treatment: 1-2 leaf stage: rice damage; type: in vivo; details: 28 days after application
Description: Field trial: Treatment: 1-2 leaf stage, evaluation 28 days after the application.

Cyperus iria = test: Table 24 field trial, treatment by the pre-emergence method: weed control; type: in vivo; details: 53 days after application
Description: Field trial: Treatment by the pre-emergence method, evaluation 53 days after the application.

Oryza sativa [8] = test: Table 25 field trial, treatment at the 3 leaf stage: rice damage; type: in vivo; details: 33 days after application
Description: Field trial: Treatment at the 3 leaf stage, evaluation 33 days after the application.

Compound: COC(=O)c1ccc(I)cc1S(=O)(=O)NC(=O)Nc1nc(C)nc(OC)n1 [A1*), Sodium salt of methyl 4-iodo-2-[3-(4-methoxy-6-methyl-1,3,5-triazin-2-yl)ureidosulfonyl]benzoate]
- CUMDI % control (Cucumis dipsaceus; 1.25 g of ai/ha): 60%
- CUMDI % control (Cucumis dipsaceus; 2.5 g of ai/ha): 80%
- LEFFI % control (Leptochloa filiformis; 1.25 g of ai/ha): 0%
- LEFFI % control (Leptochloa filiformis; 2.5 g of ai/ha): 73%
- LEFFI % control (Leptochloa filiformis; 5 g of ai/ha): 72%
- ECHCG % control (Echinochloa crusgalli [1]; 1.25 g of ai/ha): 0%
- ECHCG % control (Echinochloa crusgalli [1]; 2.5 g of ai/ha): 0%
- ECHCG % control (Echinochloa crusgalli [1]; 5 g of ai/ha): 0%
- ORYSW % damage (Oryza sativa [2]; 1.25 g of ai/ha): 0%
- ORYSW % damage (Oryza sativa [2]; 2.5 g of ai/ha): 0%
- ORYSW % damage (Oryza sativa [2]; 5 g of ai/ha): 1%
- ORYSW % damage (Oryza sativa [3]): 0%
- ORYSW % damage (Oryza sativa [4]): 10%
- ORYSW % damage (Oryza sativa [5]; 1.25 g of ai/ha): 5%
- ORYSW % damage (Oryza sativa [5]; 2.5 g of ai/ha): 10%
- ORYSW % damage (Oryza sativa [5]; 5 g of ai/ha): 10%
- ECHCG % control (Echinochloa crusgalli [6]; 1 g of ai/ha): 5%
- ECHCG % control (Echinochloa crusgalli [6]; 2 g of ai/ha): 25%
- ECHCG % control (Echinochloa crusgalli [6]; 4 g of ai/ha): 45%
- ORYSW % damage (Oryza sativa [7]; 2.5 g of ai/ha): 6%
- ORYSW % damage (Oryza sativa [7]; 5 g of ai/ha): 12%
- CYPIR % control (Cyperus iria; 2.5 g of ai/ha): 17%
- CYPIR % control (Cyperus iria; 5 g of ai/ha): 27%
- ORYSW % damage (Oryza sativa [8]; 1.25 g of ai/ha): 6%
- ORYSW % damage (Oryza sativa [8]; 2.5 g of ai/ha): 12%

— patent US6864217B2, “Herbicidal compositions with substituted phenylsulfonylureas for controlling weeds in rice” (Hoechst Schering AgrEvo GmbH, priority 1998, dated 2005)
